Source: patent publication US8263623B2, “Triazol derivatives useful for the treatment of diseases” (Pfizer Inc., priority 2008, dated 2012)

How the values were obtained:
[1] = target: human muscarinic M3 receptor (Homo sapiens, UniProt P20309); assay: hM3 competition binding assay (3H-NMS) on CHO cell membranes; conditions: 24 hr at RT, IC50 corrected by Cheng-Prussoff equation
Experimental: Binding Affinity Assessment at the Human Recombinant M3 Muscarinic Receptor
Cell Pellets from CHO (Chinese Hamster Ovary) cells recombinantly expressing the human muscarinic M3 receptor were homogenised in 20 mM HEPES (pH7.4) and centrifuged at 48000×g for 20 min at 4° C. The pellet was re-suspended in buffer and the homogenisation and centrifugation steps repeated. The resulting pellet was re-suspended in 1 ml buffer per 1 ml original packed cell volume and the homogenisation step repeated. Protein estimation was carried out on the suspension and 1 ml aliquots of ˜1 mg/ml frozen at −80° C.
hM3 Competition Binding Assay Protocol
Membranes (5 μg/well) were incubated with ^3H-NMS (at a concentration 5×KD) plus/minus test compound for 24 hr at RT (room temperature) in a 1 ml polystyrene 96-well deep well block. The final assay volume was 200 μl, comprising of: 20 μl plus/minus test compound; 20 μt, ^3H-NMS (Perkin Elmer NEN 636) and 160 μl membrane solution. Total Binding was defined with 0.1% DMSO; Non-Specific Binding was defined with 1 μM Atropine. Assay buffer was 20 mM Hepes (pH 7.4).
Once all assay components were added, plates were covered and incubated at room temperature for 24 hrs with shaking. The assay was terminated by rapidly filtering through GF/B Unifilter plates pre-soaked with 0.5% polyethylenimine, using a Packard filtermate harvester, the filter plate was then washed with 3×1 ml 4° C. assay buffer. The filter plates were dried at 45° C. for 1 hour. The bottoms of the filter plates were sealed and 50 μl/well of Microscint ‘0’ added, the top of the plates were sealed with a Topseal. Following 90 mins, the plates were read on an NXT Topcount (1 minute read time per well).
The resulting data was expressed as a percentage of the specific binding (Specific binding=Total binding−Non-Specific Binding). % specific binding versus test compound concentration was plotted to determine an IC50 from a sigmoid curve using an in-house data analysis programme. IC50 values corrected to Ki values by applying the Cheng-Prussoff equation:
(§1) [formula] where IC50 is the concentration of unlabelled drug which inhibits by 50% the specific radioligand binding. [L] is the free radioligand concentrations and KD and Ki are the equilibrium dissociation constants of the radioligand and unlabelled drug respectively. Functional Assessment of Agonist Potency and Efficacy Using a Whole cell cAMP Assay in CHO Cells Expressing the hβ2 Receptor Cell Culture

[2] = target: human adrenergic β2 receptor (Homo sapiens, UniProt P07550); assay: hβ2 cAMP assay: whole cell cAMP assay in CHO cells expressing the hβ2 receptor; type: cell-based; conditions: CHO cells recombinantly expressing human β2 receptor; for Emax: agonist efficacy, 100 nM Formoterol control; for EC50: agonist potency
Description: as §1
CHO (Chinese Hamster Ovary) cells recombinantly expressing the human adrenergic β2 receptor were maintained in growth media composed of F12:DMEM (Gibco 21331-020) containing 10% Foetal Bovine Serum (FBS: Sigma F4135), 10 μg/ml puromycin (Sigma P8833), 0.1 mg/ml Geneticin G418 (Sigma G7034) and 2 mM L-glutamine (Sigma G7513). The cells were kept in sterile conditions at 37° C., in an atmosphere containing 5% CO2.
Cells were harvested for assay when they reached 80-90% confluency using trypsin 0.25% (Sigma T4049) incubated with the cells for 5 min at 37° C. in an atmosphere containing 5% CO2. Detached cells were collected in warmed growth media (composition described above), and re-suspended in assay media (F12:DMEM (Gibco 21331-020) containing 1% Foetal Bovine Serum (FBS: Sigma F4135) and 2 mM L-glutamine (Sigma G7513)) to give a viable cell concentration of 0.25×10^6 cells/ml. 100 μl of this suspension was added to each well of a tissue culture treated 96 well view-plate (PerkinElmer 6005181) and the plate incubated in an atmosphere containing 5% CO2 at 37° C. overnight. The following day, cells were washed (4×200 μl, Skatron Skanstacker 300) with Phosphate Buffered Saline (PBS). The plates were then pat dried and the media replaced with 50 μl PBS plus 0.5 mM isobutylmethylxanthine (IBMX) (Sigma I5879) before returning to the incubator for 30 mins. The PBS plate wash procedure was repeated, followed by the addition of 50 μl PBS plus 0.5 mM IBMX and 50 μl PBS plus 2% DMSO and the plates returned to the incubator for 30 mins. Concentration ranges of test compounds were prepared in PBS containing 2% DMSO. The PBS plate wash procedure was repeated, and then 50 μl PBS plus 0.5 mM IBMX was added to the assay plates, followed by the addition of 50 μl of each compound test concentration to the appropriate well. 50 μl per well of 2% DMSO or 200 nM Formoterol was added to the control wells, giving a final assay concentration of 1% DMSO or 100 nM Formoterol. Plates were returned to the incubator for a further 30 mins. At the end of the incubation period the PBS plate wash procedure was repeated a final time as described above. The plates were pat dried and 30 μl per well PBS added followed by 40 μl per well cAMP II ED/Substrate mix and 40 μl per well cAMP II EA-Ab/lysis mix (DiscoverX 90-0034-03). The plates were then incubated in the dark for a minimum of 4 hours at room temperature. The plates were read using a Fusion plate reader (luminescence protocol, each well read for 1 second). Concentration effect curves were plotted and EC50 & Emax values determined using a 4-parameter sigmoid fit generated using an in-house data analysis programme. Formoterol and salmeterol were run in every assay as reference standards.

Sequence of human muscarinic M3 receptor (P20309 whole entry): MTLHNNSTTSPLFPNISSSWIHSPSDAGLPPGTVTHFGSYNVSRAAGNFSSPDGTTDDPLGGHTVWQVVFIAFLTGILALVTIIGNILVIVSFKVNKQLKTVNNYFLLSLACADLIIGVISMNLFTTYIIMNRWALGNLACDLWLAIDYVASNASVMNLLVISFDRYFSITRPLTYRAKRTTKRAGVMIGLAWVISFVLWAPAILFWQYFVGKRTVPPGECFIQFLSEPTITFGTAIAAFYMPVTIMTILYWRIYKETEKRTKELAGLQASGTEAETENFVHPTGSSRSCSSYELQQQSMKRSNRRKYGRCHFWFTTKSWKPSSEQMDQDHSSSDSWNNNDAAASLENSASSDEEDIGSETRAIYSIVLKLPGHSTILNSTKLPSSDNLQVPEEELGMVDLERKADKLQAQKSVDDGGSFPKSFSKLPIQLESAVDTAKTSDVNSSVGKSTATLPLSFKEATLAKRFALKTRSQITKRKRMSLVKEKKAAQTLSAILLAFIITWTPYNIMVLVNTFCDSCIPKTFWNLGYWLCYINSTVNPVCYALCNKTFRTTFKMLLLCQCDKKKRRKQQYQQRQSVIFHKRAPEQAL
Sequence of human adrenergic β2 receptor (P07550 whole entry): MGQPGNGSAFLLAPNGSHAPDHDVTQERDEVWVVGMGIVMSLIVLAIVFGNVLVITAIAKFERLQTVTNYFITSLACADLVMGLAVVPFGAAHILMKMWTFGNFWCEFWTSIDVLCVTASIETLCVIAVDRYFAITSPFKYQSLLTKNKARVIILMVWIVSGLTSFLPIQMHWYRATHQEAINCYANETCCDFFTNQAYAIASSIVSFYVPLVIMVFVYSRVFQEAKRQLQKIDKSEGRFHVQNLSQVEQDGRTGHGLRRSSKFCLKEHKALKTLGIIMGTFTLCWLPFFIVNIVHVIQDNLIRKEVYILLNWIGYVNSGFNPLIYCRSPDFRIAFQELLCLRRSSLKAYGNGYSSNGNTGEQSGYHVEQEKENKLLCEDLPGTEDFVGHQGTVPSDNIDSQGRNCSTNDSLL

Structure (SMILES) | Ki [1] | Emax [2] | EC50 [2]
O=c1ccc2c([C@@H](O)CNCCc3ccc(CCN4CCC(Cn5cnc([C@](O)(c6ccccc6)C6CCCCC6)n5)CC4)cc3)ccc(O)c2[nH]1 [Example 2, 5-[(1R)-2-{[2-(4-{2-[4-({3-[(R)-cyclohexyl(hydroxy)phenylmethyl]-1H-1,2,4-triazol-1-yl}methyl)piperdin-1-yl]ethyl}phenyl)ethyl]amino}-1-hydroxyethyl]-8-hydroxyquinolin-2(1H)-one] | 0.153 nM | 106% | 21.6 nM
O=c1ccc2c([C@@H](O)CNCCCCCCCCCN3CCC(Cn4cnc(C(O)(c5ccccc5)C5CCCCC5)n4)CC3)ccc(O)c2[nH]1 (stereo partly drawn) [Example 3, 5-[(1R)-2-({9-[4-({3-[cyclohexyl(hydroxy)phenylmethyl]-1H-1,2,4-triazol-1-yl}methyl)piperdin-1-yl]nonyl}amino)-1-hydroxyethyl]-8-hydroxyquinolin-2(1H)-one] | 0.924 nM | 91% | 20.6 nM
O=c1ccc2c([C@@H](O)CNCCc3ccc(CCN4CCC(Cn5cnc(C(O)(c6ccccc6)c6ccccc6)n5)CC4)cc3)ccc(O)c2[nH]1 [Example 5, 8-hydroxy-5-[(1R)-1-hydroxy-2-{[2-(4-{2-[4-({3-[hydroxy(diphenyl)methyl]-1H-1,2,4-triazol-1-yl}methyl)piperidin-1-yl]ethyl}phenyl)ethyl]amino}ethyl]quinolin-2(1H)-one] | 2.49 nM | 95% | 116 nM
O=c1ccc2c([C@@H](O)CNCCCCCCCCCN3CCC(Cn4cnc([C@](O)(c5ccccc5)C5CCCCC5)n4)CC3)ccc(O)c2[nH]1 [Example 1, 5-[(1R)-2-({9-[4-({3-[(R)-cyclohexyl(hydroxy)phenylmethyl]-1H-1,2,4-triazol-1-yl}methyl)piperidin-1-yl]nonyl}amino)-1-hydroxyethyl]-8-hydroxyquinolin-2(1H)-one] | 0.57 nM | 103% | 14 nM
O=c1ccc2c([C@@H](O)CNCCCCCCCCCN3CCC(Cn4cnc(C(O)(c5ccccc5)c5ccccc5)n4)CC3)ccc(O)c2[nH]1 [Example 4, 8-hydroxy-5-[(1R)-1-hydroxy-2-({9-[4-({3-[hydroxy(diphenyl)methyl]-1H-1,2,4-triazol-1-yl}methyl)piperdin-1-yl]nonyl}amino)ethyl]quinolin-2(1H)-one] | 0.505 nM | 90% | 13 nM
